Data published in the supplement of paper PMC10307832.

Key:
Experiment in all cases: relative viability (nuclei count vs DMSO), 5 days (fraction); higher = more cells survive
Omipalisib + Trametinib = compound: COc1ncc(-c2ccc3nccc(-c4ccnnc4)c3c2)cc1NS(=O)(=O)c1ccc(F)cc1F [Omipalisib] + CC(=O)Nc1cccc(-n2c(=O)n(C3CC3)c(=O)c3c(Nc4ccc(I)cc4F)n(C)c(=O)c(C)c32)c1 [Trametinib] (partner 0.02 µM)
Method in brief: (§1)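 After 5 days of treatment, lung cancer cells in 1536-well plates were fixed and stained in a single step (final 0.05% Triton X-100, 1% formaldehyde, 1 ug/ml Hoechst) and their nuclei counted on 4× images. Treatment had been applied by pin tool the day after seeding as one drug alone or as a fixed anchor-drug dose with five library-drug doses (not always all listed) in √10 steps. Relative viability is the nuclei count of treated wells divided by that of vehicle wells, and values are medians of duplicate plates.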

Omipalisib + Olaparib = compound: COc1ncc(-c2ccc3nccc(-c4ccnnc4)c3c2)cc1NS(=O)(=O)c1ccc(F)cc1F [Omipalisib] + O=C(c1cc(Cc2n[nH]c(=O)c3ccccc23)ccc1F)N1CCN(C(=O)C2CC2)CC1 [Olaparib] (partner 8 µM)
Method in brief: as §1

Omipalisib + Alpelisib = compound: COc1ncc(-c2ccc3nccc(-c4ccnnc4)c3c2)cc1NS(=O)(=O)c1ccc(F)cc1F [Omipalisib] + Cc1nc(NC(=O)N2CCC[C@H]2C(N)=O)sc1-c1ccnc(C(C)(C)C(F)(F)F)c1 [Alpelisib] (partner 2 µM)
Method in brief: as §1

Omipalisib + Linsitinib = compound: COc1ncc(-c2ccc3nccc(-c4ccnnc4)c3c2)cc1NS(=O)(=O)c1ccc(F)cc1F [Omipalisib] + C[C@]1(O)C[C@@H](c2nc(-c3ccc4ccc(-c5ccccc5)nc4c3)c3c(N)nccn32)C1 [Linsitinib] (partner 1 µM)
Method in brief: as §1

Omipalisib + Tozasertib = compound: COc1ncc(-c2ccc3nccc(-c4ccnnc4)c3c2)cc1NS(=O)(=O)c1ccc(F)cc1F [Omipalisib] + Cc1cc(Nc2cc(N3CCN(C)CC3)nc(Sc3ccc(NC(=O)C4CC4)cc3)n2)n[nH]1 [Tozasertib] (partner 0.1 µM)
Method in brief: as §1

Omipalisib + Phenformin = compound: COc1ncc(-c2ccc3nccc(-c4ccnnc4)c3c2)cc1NS(=O)(=O)c1ccc(F)cc1F [Omipalisib] + N=C(N)NC(=N)NCCc1ccccc1 [Phenformin] (partner 250 µM)
Method in brief: as §1

Cell Line	relative viability (Omipalisib + Trametinib; first compound 0.0003 µM)	relative viability (Omipalisib + Trametinib; first compound 0.003 µM)	relative viability (Omipalisib + Trametinib; first compound 0.03 µM)	relative viability (Omipalisib + Olaparib; first compound 0.0003 µM)	relative viability (Omipalisib + Olaparib; first compound 0.003 µM)	relative viability (Omipalisib + Olaparib; first compound 0.03 µM)	relative viability (Omipalisib + Alpelisib; first compound 0.0003 µM)	relative viability (Omipalisib + Alpelisib; first compound 0.003 µM)	relative viability (Omipalisib + Alpelisib; first compound 0.03 µM)	relative viability (Omipalisib + Linsitinib; first compound 0.0003 µM)	relative viability (Omipalisib + Linsitinib; first compound 0.003 µM)	relative viability (Omipalisib + Linsitinib; first compound 0.03 µM)	relative viability (Omipalisib + Tozasertib; first compound 0.0003 µM)	relative viability (Omipalisib + Tozasertib; first compound 0.003 µM)	relative viability (Omipalisib + Tozasertib; first compound 0.03 µM)	relative viability (Omipalisib + Phenformin; first compound 0.0003 µM)	relative viability (Omipalisib + Phenformin; first compound 0.003 µM)	relative viability (Omipalisib + Phenformin; first compound 0.03 µM)
LXF-289	0.65	0.747	0.407	0.943	1.05	0.455	1.06	1.02	0.792	0.961	1	0.793	0.21	0.0991	0.0753	0.505	0.416	0.396
NCI-H1734	0.54	0.362	0.288	0.56	0.364	0.226	0.582	0.464	0.32	0.731	0.484	0.359	0.243	0.233	0.221	0.341	0.265	0.183
NCI-H2009	0.278	0.16	0.184	0.705	0.511	0.378	1.16	1.12	0.994	1.13	1.18	0.946	0.796	0.674	0.607	0.511	0.487	0.316
NCI-H1395	1.05	0.83	0.615	0.501	0.421	0.371	1	0.906	0.7	1.03	0.905	0.592	0.743	0.764	0.506	0.414	0.403	0.393
NCI-H838	0.494	0.389	0.199	0.745	0.564	0.302	0.935	0.802	0.357	0.902	0.74	0.346	0.293	0.222	0.221	0.566	0.397	0.195
NCI-H2405	0.486	0.37	0.271	0.854	0.679	0.388	0.79	0.633	0.359	0.931	0.68	0.387	0.76	0.648	0.359	0.401	0.285	0.184
NCI-H1355	0.361	0.263	0.194	0.731	0.52	0.278	0.716	0.55	0.336	0.737	0.584	0.358	0.493	0.409	0.21	0.433	0.351	0.277
NCI-H1993	0.423	0.584	0.509	1.05	0.624	0.398	0.652	0.649	0.672	0.697	0.765	0.589	0.575	0.5	0.499	0.558	0.552	0.586
NCI-H1755	0.736	0.695	0.356	0.932	0.715	0.362	0.949	0.878	0.514	1	0.942	0.516	0.62	0.497	0.42	0.625	0.522	0.457
NCI-H650	0.925	0.628	0.393	0.366	0.33	0.245	1.03	0.741	0.487	0.76	0.689	0.47	0.665	0.608	0.396	0.443	0.401	0.332
NCI-H2347	0.245	0.252	0.215	0.527	0.514	0.407	1.05	1.05	0.69	0.892	0.947	0.61	0.66	0.378	0.211	0.329	0.226	0.244
SK-LU-1	0.411	0.36	0.253	0.455	0.304	0.366	0.937	0.838	0.642	1.03	1	0.679	0.339	0.301	0.237	0.47	0.299	0.273
NCI-H322M	0.478	0.453	0.416	0.802	0.815	0.515	1.07	0.77	0.452	0.971	0.72	0.506	0.467	0.407	0.348	0.739	0.57	0.453
NCI-H2023	0.492	0.358	0.149	0.428	0.414	0.185	0.513	0.523	0.344	0.513	0.342	0.234	0.309	0.282	0.151	0.379	0.275	0.164
LCLC-97TM1	0.179	0.104	0.117	0.383	0.291	0.0739	0.238	0.227	0.145	0.172	0.135	0.134	0.169	0.119	0.0744	0.38	0.338	0.159
SW 1573	0.441	0.373	0.226	0.319	0.332	0.203	0.642	0.511	0.43	0.777	0.476	0.465	0.171	0.146	0.109	0.238	0.227	0.169
HCC-15	0.32	0.207	0.165	0.681	0.643	0.542	0.922	0.73	0.789	0.929	0.77	0.799	0.373	0.38	0.237	0.427	0.372	0.306
